Measured values taken from patent US20230338340A1, “Methods of Treating Cystic Fibrosis” (The Trustees of Dartmouth College, priority 2020, published 2023).

Assays:
CAL PDZ [1] = target: T1, CAL PDZ (Homo sapiens, UniProt Q9HD26); assay: MALDI-TOF detection of covalent modification of CAL PDZ; assay type: binding
T1 construct: Recombinant CAL PDZ was expressed and purified in E. coli as previously described; made in house; host or cells: E. coli
Method: (§1) Following incubation of 50 μM protein with 75 μM of example 8, the molecular weight of the samples was determined by MALDI (unlabeled CALP molecular weight: 9464±15 Da; labeled CALP molecular weight: 9623±9 Da).

wild-type CFTR = assay: Cell-surface expression of wild-type CFTR in WT-CFBE cells; assay type: cell-based; details: 1 μM and 5 μM, no correctors or potentiators
Method: The effect of example 8 on cell-surface expression of wild-type CFTR was also tested in the absence of correctors or potentiators. Two doses (1 μM and 5 μM) of example 8 were applied to wild-type cystic fibrosis bronchial epithelial (WT-CFBE) cells and the abundance of WT-CFTR cells in the plasma membrane was quantified.

CAL PDZ [2] = target: T1, CAL PDZ; assay: CALP fluorescence polarization (FP) competition assay, HTS format with dose-response validation; assay type: binding; design: Inhibitory activity CALP at 100 μM: unit not given here
Method: (§2) CALP and/or Dab2 inhibition assays were performed in biochemical “mix-and-measure” format in order to evaluate the effects on activation and inhibition of CALP and/or Dab2 by the compounds of the disclosure. Brief assay procedure is provided below. Unless otherwise specified, all of the compounds were obtained from commercial sources.
CALP inhibitors were identified by fluorescence polarization (FP) competition assays in high-throughput screening (HTS) format. Recombinant CAL PDZ was expressed and purified in E. coli as previously described (Amacher et al., Acta Cyst. (2011) F67, 600-603), and dialyzed into FP storage buffer (25 mM Tris pH 8.5, 150 mM NaCl, 0.1 mM TCEP, and 0.02% sodium azide). A fluorescent reporter peptide, NPG32, was purchased commercially with the following sequence: F*-[…] (F* denotes a N-terminal fluorescein group coupled via an aminohexanoic acid linker). Initial single-dose HTS was performed with libraries comprising ˜52,000 compounds (FAST Lab—Novartis Institutes for BioMedical Research). First, 25 nL of 5 mM small-molecule was transferred to 1536-well Grenier plates. 3 μL of 3.708 μM CALP in FP buffer (FP storage buffer supplemented with […]) was added, and plates were incubated for 10 min. Next, 3 μL of 60 nM NPG32 (in FP buffer) was added. Final reaction volumes were 6 μL and contained 1.854 μM CALP, 30 nM NPG32, and 20.83 μM small-molecule. […] Plates were incubated for 30 minutes at room temperature and anisotropy was measured (480 nm excitation wavelength and 535 nm emission wavelength). […] Compounds were validated in triplicate using 8-point dilution series in half-log increments with two orthogonal assays: FRET and TMR-based FP assay. For the FRET assay, a cerulean-CALP fusion protein (Cer-CALP) was expressed and purified as previously described (Zhao et al., 2018). A fluorescent reporter peptide, PRC34, was purchased commercially with the following sequence: TMR*-[…] (TMR* denotes a N-terminal tetramethylrhodamine group coupled via an aminohexanoic acid linker). First, 40 nL of compound was transferred to the plates. 5 μL of 16.632 μM Cer-CALP was added, and plates were incubated for 30 min. Next, 5 μL of 16.632 μM PRC34 was added, and plates were incubated for 30 min. Final reaction volumes were 10 μL and contained 8.316 μM CALP, 8.316 μM […], and variable concentrations of small-molecule. Negative controls contained equivalent amounts of DMSO (0.4%), while positive controls contained 100 μM NPG30 (sequence: […]). Plates were incubated for 30 min, and emission at 475 nm and 575 nm was measured following excitation at 430 nm. TMR FP assays were conducted as described for the FITC-based assay with the following exceptions: TMR was used as the reporter peptide, the final CALP concentration was 11.952 μM, and the positive control used was 100 μM NPG30.

CAL PDZ [3] = target: T1, CAL PDZ; assay: FP assay of peptide binding by CAL PDZ pre-labeled with compound (apparent KD)
Excerpt: Next, to probe the biochemical effect example 8 exerts on CAL PDZ-peptide binding, CAL PDZ was pre-labeled with example 8 and performed fluorescence polarization (FP) assays to determine apparent KD values for both unlabeled and labeled CAL PDZ.

CAL PDZC319A = target: T2, CAL PDZC319A (Homo sapiens, UniProt Q9HD26, C327A); assay: MALDI-TOF detection of adduct on point mutant CAL PDZ C319A; assay type: binding; details: only cysteine mutated to alanine
T2 construct: point mutant CAL PDZC319A (where the only cysteine residue is mutated to alanine)
Method: as §1

HBE primary cells = assay: Airway surface liquid (ASL) volume after forskolin stimulus in HBE primary cells; assay type: cell-based; details: 20 μM, basolateral, 4 hr
Method: A functional test for CFTR activity is the determination of airway surface liquid (ASL) height, reflecting ion transport and associated osmotic recruitment of water, following activation of CFTR ion transport via forskolin stimulation. This functional test is directly related to one of the hallmarks of CF: the viscosity of airway mucus due to lack of anion transport.
Example 6 or Example 9 (20 μM each) or DMSO (CTR; 0.02%; […]) was added to the basolateral medium for 4 hr. Subsequently, forskolin (20 μM) and IBMX (1 mM) was added to the apical and basolateral medium. The test compounds were added for 30 min directly to the basolateral medium, and they were added in 10 μL medium to the apical side. The 10 μL volume was subtracted from the ASL volume (N=2-4/group).

Human-Dab2-DH = target: T3, Human-Dab2-DH (Homo sapiens, UniProt P98082); assay: Dab2 FP competition assay via HTS; assay type: binding
T3 construct: fused on or other part: N-terminal 10xHis tag with a 3C protease site, cleaved off unless otherwise indicated
T3 sequence (P98082 33-178 limits assumed): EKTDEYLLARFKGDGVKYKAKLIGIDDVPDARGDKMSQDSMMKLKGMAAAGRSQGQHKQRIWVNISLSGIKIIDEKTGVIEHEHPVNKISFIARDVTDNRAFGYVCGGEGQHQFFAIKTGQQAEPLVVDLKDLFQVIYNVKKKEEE
Method: as §2
Dab-2 inhibitors were also identified by FP competition assays via HTS. Human-Dab2-DH, residues 31-191 (Uniprot: P98082), and trDab2-DH (residues 33-178) was subcloned into the pET16b vector via PCR utilizing the restriction enzyme sites of Xhol and BamHI. The construct was designed with a 3C protease cleavage site directly upstream and in-frame with the protein coding sequence. DNA was sequence verified. (0.1 mM) IPTG was used to induce protein expression in E. coli BL21(DE3)RIL cells, after reaching an O.D. of […]. […] Followed by 3C cleavage of the 10×His tag (unless otherwise indicated), and a second nickel affinity column to remove the 3C protease and excess tag. Dab2-DH was dialyzed into FP storage buffer (25 mM Tris pH 8.0, 150 mM NaCl, 0.1 mM TCEP, and 0.02% sodium azide). Fluorescent reporter peptides, TIVR*STA02 (TMR*-[…]) and TMR*STA03 (TMR*-[…]), were purchased commercially with the following sequence where TMR* denotes a N-terminal tetramethylrhodamine group coupled via an aminohexanoic acid linker. An unlabled positive control peptide STA02 ([…]) was also purchased commercially. Inhibitors of Dab2-DH were identified from a variety of sources with various protocols outlined below.
For screens conducted at the Novartis Institutes for BioMedical Research FAST Lab, single-dose HTS assays were performed with libraries comprising ˜52,000 compounds at 20 μM doses. Experiments were conducted as described for screens at the University of Pittsburgh Lab and Drug Discovery Institute, except that Dab2-DH, not trDab2-DH, was used as the protein source.
For screens conducted at the Broad Institute, compound transfers were done using a 384-well pin tool equipped with 100 nL hydrophobic surface coated pins. 100 nL of DMSO (negative control), STA02 (positive control), or library compounds were dispensed into 20 μL of protein (200 nM) and reporter (F*-STA02, 30 nM) mixture with 0.1 mg/ml mouse IgG and 0.5 mM Thesit. Final concentrations in the mixture were DMSO ([…]), STA02 (20 μM), and compounds (18 μM). Plates were incubated for 35-45 minutes before measuring polarization. Compounds were tested in duplicates on two separate plates. Positive and negative controls were included in each individual plate.
For experiments conducted at the University of Pittsburgh Lab and Drug Discovery Institute, single-dose HTS assays were performed with a library containing ˜220,000 compounds. On the day of screening, a master mix of equal parts trDab2-DH (900 nM) and TMP-STA03 (90 nM) was prepared. Compound plates containing assay ready 2 μL aliquots of a 1 mM stock solution in DMSO were thawed, reconstituted in FP buffer to a concentration of 30 μM in 3% DMSO, and five μL transferred to low volume assay plates using a Perkin Elmer MDT. Ten μL of master mix were added by a Microflo bulk liquid dispenser (Biotek, Winooski, VT) and processed as described in the general protocol above. Each plate contained 32 wells of positive (Dab2-DH+probe+DMSO) and negative (Dab2-DH+probe +10 μM STA03) controls. Plates were read at 1.5-h and 4-h on the Envision multilabel reader.

CFTR [4] = assay: CFTR activity in F508del HBE primary cells; assay type: cell-based; details: 1 μM, 4 hours
CFTR [5] = assay: Apical membrane abundance of CFTR in WT-CFBE cells (biotinylation, immunoblot); assay type: cell-based; details: 1 μM
Method: Apical membrane CFTR was normalized for CFTR abundance in cell lysate. N=2 (1h and 2 h) and n=3 (4h). Error bar S.E.M. *p<0.05 versus vehicle control (CTRL; 0.03% water).

Dab2-DH = target: T4, Dab2-DH (Homo sapiens, UniProt P98082); assay: Dab2-DH FP competitive displacement experiments (F*-STA02 reporter); assay type: binding; details: text b140
T4 construct: Human-Dab2-DH, residues 31-191 (Uniprot: P98082); 10xHis (3C protease site) (N, cleaved yes); made in house; host or cells: E. coli BL21(DE3)RIL
T4 sequence (P98082 31-191): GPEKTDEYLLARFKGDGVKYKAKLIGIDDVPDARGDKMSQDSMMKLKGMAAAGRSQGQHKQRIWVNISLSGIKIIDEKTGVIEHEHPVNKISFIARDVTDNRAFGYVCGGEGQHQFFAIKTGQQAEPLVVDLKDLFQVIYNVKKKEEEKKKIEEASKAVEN

[6] = with VX-770, C-18, CFFT-002, Fsk and IBMX

O=c1[nH]c2ccc(S(=O)(=O)Nc3ccc(O)c4ccccc34)cc2[nH]1 [Example 8, N-(4-hydroxynaphthalen-1-yl)-2-oxo-2,3-dihydro-1H-benzo[d]imidazole-5-sulfonamide]
Adduct size / mass shift observed on CAL PDZ (CAL PDZ [1]): ~160 Da
Covalent modification of CAL PDZ (CAL PDZ [1]): covalently modify CAL PDZ
Surface levels of WT-CFTR (wild-type CFTR): reduce surface levels of WT-CFTR
Inhibitory activity CALP at 100 μM (CAL PDZ [2]; at 100 μM): −72.16
IC50 (CAL PDZ [2]; read-out: Inhibitory activity CALP IC50): 4.57 µM
Attenuation in peptide binding vs unlabeled CAL PDZ (CAL PDZ [3]): ~4 fold
Adduct on CAL PDZ C319A (CAL PDZC319A): no adduct is detected

COc1cc(O)c(C(=O)O)c(-c2cc(O)c(O)cc2C)c1 [Example 9, 3,4′,5′-trihydroxy-5-methoxy-2′-methyl-[1,1′-biphenyl]-2-carboxylic acid]
ASL volume generated in response to forskolin stimulus (HBE primary cells): increased the ASL volume
IC50 (Human-Dab2-DH): 0.037 µM

C=C1c2cccc(O)c2C(O)=C2C(=O)[C@]3(O)C(O)=C(C(N)=O)C(=O)[C@@H](N(C)C)[C@@H]3[C@@H](O)[C@H]12 [Example 10, (4S,4aR,5S,5aR,12aR)-4-(dimethylamino)-1,5,10,11,12a-pentahydroxy-6-methylene-3,12-dioxo-3,4,4a,5,5a,6,12,12a-octahydrotetracene-2-carboxamide]
CFTR activity (CFTR [4]; [6]): significant enhancement of CFTR activity
Channel activity relative to absence of C-18 and CFFT-002 (CFTR [4]; [6]): approximately 2 fold
CFTR activity (CFTR [4]; with VX-770, Fsk and IBMX): significant enhancement of CFTR activity
Abundance of CFTR (apical membrane) (CFTR [5]): increase in the abundance of CFTR

CN1CCc2cccc3c2[C@@H]1Cc1ccc(O)c(O)c1-3.Cl [Example 12, (S)-6-methyl-5,6,6a,7-tetrahydro-4H-dibenzo[de,g]quinoline-10,11-diol hydrochloride]
Ki (Dab2-DH): 1.61 ± 0.74 µM
Inhibitory activity Dab2 at Cmax (Human-Dab2-DH; at Cmax, cells printed with %): ~−95%
